Test results from patent US20140288052A1, “SUBSTITUTED BICYCLIC AZA-HETEROCYCLES AND ANALOGUES AS SIRTUIN MODULATORS” (GlaxoSmithKline, LLC, priority 2011, published 2014).

Experiments:
[1] = biological target: T1, SIRT1 (Homo sapiens, UniProt Q96EB6); assay: Trp mass spectrometry assay of SIRT1 deacetylase activation; format: biochemical; conditions: Trp peptide substrate; for TRP EC1.5 (μM): concentration that results in 150% activation of SIRT1; for TRP % Fold Act: percent maximum fold activation relative to control (100%)
T1 sequence (Q96EB6 1-747): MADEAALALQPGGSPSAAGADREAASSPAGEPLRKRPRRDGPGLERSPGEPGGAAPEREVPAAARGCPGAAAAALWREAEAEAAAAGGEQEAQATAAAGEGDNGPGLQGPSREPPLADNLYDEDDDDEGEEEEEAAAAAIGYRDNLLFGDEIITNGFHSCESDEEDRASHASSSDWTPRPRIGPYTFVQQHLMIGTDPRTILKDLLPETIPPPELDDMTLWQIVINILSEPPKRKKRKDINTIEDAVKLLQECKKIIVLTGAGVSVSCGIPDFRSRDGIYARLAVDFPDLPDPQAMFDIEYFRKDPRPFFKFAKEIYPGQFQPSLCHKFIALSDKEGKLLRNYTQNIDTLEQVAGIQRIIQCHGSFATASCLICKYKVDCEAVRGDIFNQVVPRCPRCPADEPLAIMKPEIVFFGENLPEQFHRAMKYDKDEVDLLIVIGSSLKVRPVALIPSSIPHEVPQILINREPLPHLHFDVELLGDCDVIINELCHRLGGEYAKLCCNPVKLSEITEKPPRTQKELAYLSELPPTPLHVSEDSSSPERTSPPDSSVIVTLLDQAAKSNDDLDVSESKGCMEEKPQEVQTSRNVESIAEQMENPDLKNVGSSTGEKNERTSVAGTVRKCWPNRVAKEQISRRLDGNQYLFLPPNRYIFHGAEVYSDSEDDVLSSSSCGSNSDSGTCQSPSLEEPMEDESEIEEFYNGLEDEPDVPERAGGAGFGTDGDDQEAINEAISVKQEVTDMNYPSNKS
Procedure, shortened: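 His-tagged human SIRT1 (E. coli-expressed, 10 nM) was incubated with 0.5 μM Ac-RHKK(Ac)W-NH2 peptide and 120 μM βNAD+ for 25 min at 25 °C in HEPES pH 7.5, 1500 mM NaCl, with varying compound; formic acid quench. OAADPR or deacetylated peptide was quantified by mass spectrometry against DMSO control. EC1.5 (150% activation) and percent maximum activation were derived.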

[2] = biological target: T1, SIRT1; assay: TAMRA based mass spectrometry assay of SIRT1 deacetylase activation; format: biochemical; conditions: TAMRA peptide substrate; for TAMRA EC1.5 (μM): concentration that results in 150% activation of SIRT1; for TAMRA % Fold Act: percent maximum fold activation relative to control (100%)
Procedure, shortened: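 E. coli-expressed N-terminal His-tagged human SIRT1 (10 nM) was incubated 25 min at 25 °C, pH 8 Tris-acetate buffer, with 0.5 μM TAMRA-labelled p53-derived acetyl-peptide, 120 μM NAD+ and varying compound; formic acid stop, mass-spec quantitation of deacetylated product vs DMSO controls. EC1.5 = concentration giving 150% activation.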

Compound	TRP EC1.5 (μM) [1]	TRP % Fold Act [1]	TAMRA EC1.5 (μM) [2]	TAMRA % Fold Act [2]
O=C(Nc1ccnc2cc(-c3ccccc3C(F)(F)F)nn12)c1cnc(O)cn1 [Compound 117]	C (EC1.5>25 μM)	B (Fold Activation<350%)	A (EC1.5<1 μM)	A (Fold activation≧350%)
O=C(Nc1ccncc1)c1ccnc2cc(-c3ccccc3C(F)(F)F)nn12 [Compound 77]	B (EC1.5 1−25 μM)	B (Fold Activation<350%)	B (EC1.5 1−25 μM)	A (Fold activation≧350%)
O=C(Nc1cccc(CN2CCOCC2)n1)c1ccnc2cc(-c3ccccc3C(F)(F)F)nn12 [Compound 83]	B (EC1.5 1−25 μM)	B (Fold Activation<350%)	A (EC1.5<1 μM)	A (Fold activation≧350%)
O=C(Nc1cccnc1)c1cc(N2CCOCC2)nn2cc(-c3ccccc3F)nc12 [Compound 40]	C (EC1.5>25 μM)	B (Fold Activation<350%)	C (EC1.5>25 μM)	B (Fold Activation<350%)
O=C(Nc1ccnc2cc(-c3ccccc3C(F)(F)F)nn12)c1ncccn1 [Compound 60]	B (EC1.5 1−25 μM)	B (Fold Activation<350%)	A (EC1.5<1 μM)	A (Fold activation≧350%)
O=C(Nc1cccc(N2CCOCC2)n1)c1ccnc2cc(-c3ccccc3C(F)(F)F)nn12 [Compound 82]	C (EC1.5>25 μM)	B (Fold Activation<350%)	A (EC1.5<1 μM)	A (Fold activation≧350%)
O=C(Nc1nccs1)c1ccnn2cc(-c3ccccc3F)nc12 [Compound 1]	C (EC1.5>25 μM)	B (Fold Activation<350%)	C (EC1.5>25 μM)	B (Fold Activation<350%)

Now from value to molecule:

TRP EC1.5 (μM) [1]	TRP % Fold Act [1]	TAMRA EC1.5 (μM) [2]	TAMRA % Fold Act [2]	Compound
C (EC1.5>25 μM)	B (Fold Activation<350%)	C (EC1.5>25 μM)	B (Fold Activation<350%)	Cc1cnc(NC(=O)c2cc(N3CCOCC3)nn3cc(-c4cccc(C(F)(F)F)c4)nc23)s1 [Compound 48]
C (EC1.5>25 μM)	B (Fold Activation<350%)	C (EC1.5>25 μM)	B (Fold Activation<350%)	O=C(Nc1ccncn1)c1ccnc2cc(-c3cccc(C(F)(F)F)c3)nn12 [Compound 92]
C (EC1.5>25 μM)	B (Fold Activation<350%)	C (EC1.5>25 μM)	B (Fold Activation<350%)	O=C(Nc1ccnc2cc(-c3cccc(C(F)(F)F)c3)nn12)c1cccc(N2CCC2)n1 [Compound 98]
C (EC1.5>25 μM)	B (Fold Activation<350%)	B (EC1.5 1−25 μM)	B (Fold Activation<350%)	Cc1cnc(NC(=O)c2ccnc3cc(-c4cccc(C(F)(F)F)c4)nn23)s1 [Compound 88]
B (EC1.5 1−25 μM)	B (Fold Activation<350%)	B (EC1.5 1−25 μM)	B (Fold Activation<350%)	Cc1csc(NC(=O)c2ccnc3cc(-c4ccccc4C(F)(F)F)nn23)n1 [Compound 81]
B (EC1.5 1−25 μM)	B (Fold Activation<350%)	B (EC1.5 1−25 μM)	A (Fold activation≧350%)	O=C(Nc1ccccn1)c1ccnc2cc(-c3ccccc3C(F)(F)F)nn12 [Compound 75]
C (EC1.5>25 μM)	B (Fold Activation<350%)	C (EC1.5>25 μM)	B (Fold Activation<350%)	Cc1cnc(NC(=O)c2ccnn3cc(-c4cccc(F)c4)nc23)s1 [Compound 5]
A (EC1.5<1 μM)	B (Fold Activation<350%)	B (EC1.5 1−25 μM)	B (Fold Activation<350%)	O=C(Nc1nccs1)c1ccnc2cc(-c3ccccc3C(F)(F)F)nn12 [Compound 79]
